Reference: patent US9951042B2, “Polymorphic form of [5-fluoro-3-({2-[(4-fluorobenzene) sulfonyl] pyridin-3-yl}methyl)-2-methylindol-1-yl]-acetic acid” (Atopix Therapeutics Limited, priority 2014, dated 2018)
In brackets after ≈: the same amount, converted by molar mass. Entries after “also recorded” stand apart in the source; their conditions may differ.

Tests used:
TG-FTIR thermogravimetry = type: physicochemical; settings: 25° C. to 250° C., heating rate 10° C./min
Method: TG-FTIR: Thermogravimetric measurements were carried out with a Netzsch Thermo-Microbalance TG 209 coupled to a Bruker FTIR Spectrometer Vector 22 or IFS 28 (sample pans with a pinhole, N2 atmosphere, heating rate 10° C./min, range 25° C. up to 250° C.).
Batch 3 was analyzed by TG-FTIR in a temperature range of 25° C. to 250° C. and a heating rate of 10° C./min. […] Decomposition occurs above ˜160° C. Therefore the material is likely a non-solvated form.

[1] = Thermodynamic stability of polymorphic forms (suspension equilibration); type: physicochemical
Method: Polymorphic Form 3 has a melting signal at 200° C. as measured by differential scanning calorimetry and is stable at temperatures above about 60-65° C.
A mixture with similar ratios of the products of Example 4, Experiment 15 (Form 1), Example 4, Experiment 9 (form 2+x) and Example 4, Experiment 6 (Form 2+Form 3) were suspended in acetonitrile and shaken for 13 days at 22° C. to give a product designated Product P24). The solid was recovered by filter centrifugation and characterized by PXRD. […] These signals could be assigned to (i) another crystalline form or (ii) the signals could not be detected for Product P24 because the diffractogram has a lower intensity.
Thus, after 13 days at 22° C. the PXRD corresponds to that of Form 2.

[2] = Solubility of polymorphic forms in simulated intestinal fluids by HPLC; type: physicochemical; settings: for Solubility / pH of Saturated solution: 25° C., equilibrated 24 hours
Method: The solubility of Form 1, Form 2 and Form 3 was determined by HPLC in fasted state simulated intestinal fluid (FaSSIF) and fed state simulated intestinal fluid (FeSSIF) at 25° C. FaSSIF and FeSSIF were prepared from SIF powder, available at PHARES, Switzerland. Suspensions of […] were prepared and equilibrated for 24 hours at 25° C. The suspensions were filtered. The pH values of the resulting saturated solutions were measured. The filtrates were diluted and analyzed by HPLC using a general, unoptimized method. The values listed below are averages over multiple repetitions. Additionally Raman spectra of the recovered solids were recorded.

[3] = Dynamic vapour sorption (DVS); type: physicochemical
Method: DVS (SPS): Sorption Measurement System SPS11-100n. The sample was placed in an Al crucible, and the sample was allowed to equilibrate at a given r.h. before starting a predefined humidity program. The used measurement program can be recognized in the corresponding figures (blue line).
In order to examine the behaviour of Batch 1 in the presence of variable water vapour pressure, the sample was analyzed by DVS. […] The sample was conditioned at 50% r.h. before starting a pre-defined humidity program with a scanning rate of 5% r.h. change per hour. Below 50% r.h. a continuous mass loss is observed. […] At relative humidities above 84% r.h. an increased water uptake is observed. At 95% r.h. no equilibrium is reached. This is typical for amorphous material. At the end of the measurement (end humidity 50% r.h.) the sample has a 0.6% higher mass as the starting material. The sample was checked by FT-Raman (pre- and post DVS measurements).

CRTH2 receptor = target: T1, CRTH2 receptor (Homo sapiens, UniProt Q9Y5Y4); settings: cited from earlier work
T1 sequence (Q9Y5Y4 1-395): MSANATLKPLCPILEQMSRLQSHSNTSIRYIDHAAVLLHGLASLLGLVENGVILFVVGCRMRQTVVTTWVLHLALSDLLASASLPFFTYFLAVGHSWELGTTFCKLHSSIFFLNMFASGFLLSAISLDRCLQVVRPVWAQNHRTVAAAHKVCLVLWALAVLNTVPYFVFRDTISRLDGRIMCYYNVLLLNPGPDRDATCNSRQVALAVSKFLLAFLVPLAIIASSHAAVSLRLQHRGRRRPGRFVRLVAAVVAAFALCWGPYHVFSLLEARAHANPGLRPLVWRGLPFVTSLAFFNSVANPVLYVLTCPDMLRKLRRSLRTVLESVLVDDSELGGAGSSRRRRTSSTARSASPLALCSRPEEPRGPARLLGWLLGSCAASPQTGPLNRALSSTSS

Compound	Temperature range of thermodynamic stability [1]	Solubility ([2]; FaSSIF)	pH of Saturated solution ([2]; FaSSIF)	Solubility ([2]; FeSSIF)	pH of Saturated solution ([2]; FeSSIF)	also measured
Cc1c(Cc2cccnc2S(=O)(=O)c2ccc(F)cc2)c2cc(F)ccc2n1CC(=O)O [Batch 3, [5-fluoro-3-({2-[(4-fluorobenzene)sulfonyl]pyridin-3-yl}methyl)-2-methylindol-1-yl]-acetic acid]	–	–	–	–	–	Decomposition temperature (TG-FTIR thermogravimetry): > 160 °C
Cc1c(Cc2cccnc2S(=O)(=O)c2ccc(F)cc2)c2cc(F)ccc2n1CC(=O)O [Form 1, [5-fluoro-3-({2-[(4-fluorobenzene)sulfonyl]pyridin-3-yl}methyl)-2-methylindol-1-yl]-acetic acid]	thermodynamically stable at high temperatures	720 µg/mL (≈ 1580 µM)	5.7	1180 µg/mL (≈ 2590 µM)	4.9	–
Cc1c(Cc2cccnc2S(=O)(=O)c2ccc(F)cc2)c2cc(F)ccc2n1CC(=O)O [Batch 1, [5-fluoro-3-({2-[(4-fluorobenzene)sulfonyl]pyridin-3-yl}methyl)-2-methylindol-1-yl]-acetic acid]	–	–	–	–	–	Mass change at end of DVS measurement versus starting material ([3]; end humidity 50% r.h., 5% r.h. change per hour): 0.6%; Phase transition after DVS (FT-Raman pre- and post) ([3]; sample recovered from DVS): no phase transition
Cc1c(Cc2cccnc2S(=O)(=O)c2ccc(F)cc2)c2cc(F)ccc2n1CC(=O)O [Compound 1, [5-fluoro-3-({2-[(4-fluorobenzene)sulfonyl]pyridin-3-yl}methyl)-2-methylindol-1-yl]-acetic acid]	–	–	–	–	–	CRTH2 antagonist activity (CRTH2 receptor): has CRTH2 antagonist activity

Continued, in another order:

Temperature range of thermodynamic stability [1]	Solubility ([2]; FaSSIF)	pH of Saturated solution ([2]; FaSSIF)	Solubility ([2]; FeSSIF)	pH of Saturated solution ([2]; FeSSIF)	Compound	also measured
60-65 °C	1310 µg/mL (≈ 2870 µM)	5.4	2120 µg/mL (≈ 4640 µM)	5.0	Cc1c(Cc2cccnc2S(=O)(=O)c2ccc(F)cc2)c2cc(F)ccc2n1CC(=O)O [Form 3, [5-fluoro-3-({2-[(4-fluorobenzene)sulfonyl]pyridin-3-yl}methyl)-2-methylindol-1-yl]-acetic acid]	Comparative solubility among crystalline forms ([2]; FaSSIF and FeSSIF): most soluble crystalline form; also recorded: more soluble in both FaSSIF and FeSSIF
60-65 °C	550 µg/mL (≈ 1200 µM)	6.1	350 µg/mL (≈ 767 µM)	5.0	Cc1c(Cc2cccnc2S(=O)(=O)c2ccc(F)cc2)c2cc(F)ccc2n1CC(=O)O [Form 2, [5-fluoro-3-({2-[(4-fluorobenzene)sulfonyl]pyridin-3-yl}methyl)-2-methylindol-1-yl]-acetic acid]	Most stable form after suspension equilibration of a mixture of forms ([1]; acetonitrile, 13 days at 22° C., PXRD): most stable form at room temperature
